From PubChem BioAssay (NCI)
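A five-concentration, 48-hour dose response in 96-well plates underlies each endpoint, interpolated linearly between surrounding concentrations. At the TGI there is no net growth.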

How the values were obtained:
Assay in all cases: NCI anticancer screen, dose series, 48 h
CCRF-CEM leukemia = system: CCRF-CEM leukemia
OVCAR-4 ovarian = system: OVCAR-4 ovarian
PC-3 prostate = system: PC-3 prostate
UACC-257 melanoma = system: UACC-257 melanoma
SW-620 colon = system: SW-620 colon
RXF 393 renal = system: RXF 393 renal
SF-295 CNS = system: SF-295 CNS
LOX IMVI melanoma = system: LOX IMVI melanoma
DU-145 prostate = system: DU-145 prostate
OVCAR-3 ovarian = system: OVCAR-3 ovarian
SK-MEL-2 melanoma = system: SK-MEL-2 melanoma
HL-60(TB) leukemia = system: HL-60(TB) leukemia
SF-539 CNS = system: SF-539 CNS
TK-10 renal = system: TK-10 renal
NCI/ADR-RES ovarian = system: NCI/ADR-RES ovarian
HCT-116 colon = system: HCT-116 colon
SK-OV-3 ovarian = system: SK-OV-3 ovarian
A498 renal = system: A498 renal

| SMILES | TGI (CCRF-CEM leukemia) | TGI (OVCAR-4 ovarian) | TGI (PC-3 prostate) | TGI (UACC-257 melanoma) | TGI (SW-620 colon) | TGI (RXF 393 renal) | TGI (SF-295 CNS) | TGI (LOX IMVI melanoma) | TGI (DU-145 prostate) | TGI (OVCAR-3 ovarian) | TGI (SK-MEL-2 melanoma) | TGI (HL-60(TB) leukemia) | TGI (SF-539 CNS) | TGI (TK-10 renal) | TGI (NCI/ADR-RES ovarian) | TGI (HCT-116 colon) | TGI (SK-OV-3 ovarian) | TGI (A498 renal) |
| --- | --- | --- | --- | --- | --- | --- | --- | --- | --- | --- | --- | --- | --- | --- | --- | --- | --- | --- |
| Nn1c(-c2ccccc2Nc2ccccc2-c2n[nH]c(=S)n2N)n[nH]c1=S | > 50 µM | > 50 µM | > 50 µM | > 50 µM | > 50 µM | > 50 µM | > 50 µM | > 50 µM | > 50 µM | > 50 µM | > 50 µM | > 50 µM | > 50 µM | > 50 µM | > 50 µM | > 50 µM | – | – |
| CC(=O)NC(ON1C(=O)COc2ccccc21)C(Cl)(Cl)Cl (stereo not drawn) | – | > 100 µM | – | > 100 µM | > 100 µM | – | > 100 µM | > 100 µM | – | > 100 µM | > 100 µM | > 100 µM | > 100 µM | > 100 µM | – | > 100 µM | > 100 µM | – |
| COC(=O)C(C(=O)C(=O)Nc1c(Cl)cc([N+](=O)[O-])cc1Cl)c1nc2cc(C)c(C)cc2[nH]c1=O (stereo not drawn) | > 100 µM | > 100 µM | – | > 100 µM | > 100 µM | > 100 µM | > 100 µM | > 100 µM | – | > 100 µM | > 100 µM | > 100 µM | > 100 µM | > 100 µM | – | > 100 µM | > 100 µM | > 100 µM |
| CC(=O)N(/N=C\c1ccc([N+](=O)[O-])cc1)c1ccccc1 | > 100 µM | > 100 µM | – | > 100 µM | > 100 µM | – | > 100 µM | > 100 µM | – | > 100 µM | > 100 µM | – | > 100 µM | > 100 µM | – | > 100 µM | > 100 µM | > 100 µM |
| Cc1ccc(/C=C/C(=O)c2sc(C(N)=S)nc2C)cc1 | > 100 µM | – | – | > 100 µM | > 100 µM | > 100 µM | > 100 µM | > 100 µM | – | > 100 µM | > 100 µM | > 100 µM | > 100 µM | > 100 µM | – | – | > 100 µM | > 100 µM |
| CSc1nc2nc(C)c(C)nc2c(=O)[nH]1 | > 100 µM | > 100 µM | – | > 100 µM | > 100 µM | > 100 µM | > 100 µM | > 100 µM | – | > 100 µM | > 100 µM | > 100 µM | – | > 100 µM | – | > 100 µM | > 100 µM | > 100 µM |
| CC(C)CC(=O)N1CCN(C(=O)CC(C)C)c2ccccc21 | > 100 µM | – | – | > 100 µM | > 100 µM | > 100 µM | > 100 µM | > 100 µM | – | > 100 µM | > 100 µM | > 100 µM | > 100 µM | > 100 µM | – | > 100 µM | > 100 µM | > 100 µM |
| COC(=O)C(CCC1(C)OCCO1)C(C)=O (stereo not drawn) | > 100 µM | > 100 µM | – | > 100 µM | > 100 µM | > 100 µM | > 100 µM | > 100 µM | – | > 100 µM | > 100 µM | > 100 µM | > 100 µM | > 100 µM | – | > 100 µM | > 100 µM | > 100 µM |
| Cc1cc(=O)cc2sc3cc(Cl)ccc3nc1-2 | 37.5 µM | > 85.4 µM | – | 69.9 µM | 29.8 µM | 30 µM | 26.6 µM | 24.4 µM | – | 31.9 µM | 23.5 µM | 26.2 µM | 26.1 µM | 53.8 µM | – | 28.7 µM | > 82.5 µM | 45.4 µM |
| Cn1c(=O)c2c(ncn2CCCCn2ccnc2[N+](=O)[O-])n(C)c1=O | > 100 µM | > 100 µM | – | – | > 100 µM | > 100 µM | > 100 µM | > 100 µM | – | > 100 µM | > 100 µM | > 100 µM | > 100 µM | > 100 µM | – | > 100 µM | – | – |
| N#Cc1ccc(Nc2cnc3cc(N)ccc3n2)cc1 | > 100 µM | > 100 µM | – | > 100 µM | > 100 µM | > 100 µM | > 100 µM | > 100 µM | – | > 100 µM | > 100 µM | > 100 µM | > 100 µM | > 100 µM | – | > 100 µM | > 100 µM | – |
| O=C1CCCCC1C1(O)C(=O)Nc2cc(F)ccc21 (stereo not drawn) | > 100 µM | > 100 µM | – | > 100 µM | > 100 µM | > 100 µM | > 100 µM | > 100 µM | – | – | > 100 µM | > 100 µM | > 100 µM | > 100 µM | – | > 100 µM | > 100 µM | > 100 µM |
| CNC(=S)NNC(=O)c1c(C)nc2sccn12 | > 100 µM | – | – | > 100 µM | > 100 µM | > 100 µM | > 100 µM | > 100 µM | – | > 100 µM | > 100 µM | > 100 µM | > 100 µM | > 100 µM | – | > 100 µM | > 100 µM | – |
| COC1=C(C)C(=O)C2C(C1=O)C(c1ccc(OC)c(OC)c1)[C@H]2C (stereo partly drawn) | > 100 µM | > 100 µM | – | – | > 100 µM | > 100 µM | > 100 µM | > 100 µM | – | > 100 µM | > 100 µM | > 100 µM | > 100 µM | > 100 µM | – | – | > 100 µM | > 100 µM |
